The subject of data set [1] is cocaine-dependent or binge eating animals. The following applies: cited from earlier work.
The subject of data set [2] is C57BL/6 mouse. As to the kind of experiment: Amount of alcohol (20%) consumed by alcohol-trained mice in IntelliCages after intraperitoneal injection. As to conditions: versus vehicle control group. It is filed as in vivo. The protocol: The study involved 30 C57BL/6 mouse subjects that had undergone a two-month, earlier adaptive training to drink alcohol (20%) in IntelliCages (Fig. 1), under typical living conditions (temperature: 21-23°C, humidity 50-60%, 12/12 light-dark cycle). During the adaptive training, the mice had constant access to food and water except for: • 1. 25 days, during which, 2 hours after the beginning of the dark phase, all water bottles were replaced for 3 hours with bottles containing 20% alcohol (no access to clean water at all). • 2. 15 days, during which, 2 hours after the beginning of the dark phase, half of the water bottles were replaced for 3 hours with bottles containing 20% alcohol (possibility to choose water or alcohol). […]
During the adaptive training, the amount of alcohol consumed was recorded for each animal separately. […] The degree of preference for drinking alcohol was determined according to the following criteria: • high-drinkers: on average from 100 to 200 licks of alcohol, with a choice between water and alcohol (3 hour session); • medium-drinkers: on average from 50 to 100 licks of alcohol, with a choice between water and alcohol; (3 hour session); • low-drinkers: on average from 0 to 50 licks of alcohol, with a choice between water and alcohol; (3 hour session); […]

For data set [3], the system named is mice. As to the kind of experiment: Motivation to drink alcohol: progressive nose-poke test in IntelliCages. The following applies: 10 mg/kg bw intraperitoneal, 20% alcohol, attempts measured over 20 hours, 3 tests, Fig. 5. The format is in vivo. The protocol: The effect of RO5256390 administration on motivation to drink alcohol was also assessed experimentally. In this experiment a new group of animals was used, these were 13 animals that underwent a three-month adaptive training to drink alcohol (20%) in IntelliCages. The motivation to drink alcohol was then assessed for each animal by conducting 3 tests. For the purposes of the test, the IntelliCage was designed in such a way that access to alcohol for a given animal was only possible, with a certain number of so-called "nose-pokes", meaning cutting the laser beam with the snout when trying to reach the alcohol bottle. In order to drink alcohol, the animal must first cut the beam twice, then 4, 8, 12, 16 times etc. After the required number of nose-pokes are made, the alcohol-blocking door opens. The more attempts to get into the alcohol bottle and the greater the number of beam intersection events achieved, the greater the motivation to drink alcohol. Each test started when half of the water bottles was replaced with 20% alcohol bottles. During the next 20 hours the number of drinking attempts was measured for each animal. After 3 series of motivational tests, which were carried out at weekly intervals, the animals were divided into two experimental groups. […]

Data set [4] is described as follows: Solubility in the injection vehicle. The format is physicochemical. As to conditions: solution of 5% ethanol and 10% collyphor, for an exemplary dose of 10 mg/kg body weight, intraperitoneal administration. As to the method:
(§1) The compound of Formula II is additionally easy to prepare and formulate (well soluble in a solution of 5% ethanol and 10% collyphor for an exemplary dose of 10 mg/kg body weight in an intraperitoneal administration), it appears to be non-toxic in animal models.

Data set [5] deals with animal models. Kind of data set: Toxicity in animal models. The format is in vivo. As to the method:
as §1

We go through one compound from EP3928777A1, “4,5-DIHYDRO-OXAZOL-2-YLAMINE DERIVATIVES FOR USE IN THE PREVENTION OR TREATMENT OF ALCOHOL USE DISORDER” (Instytut Biologii Doswiadczalnej im. Marcelego Nenckiego …, priority 2020, dated 2021).

As to `CC[C@@H](C[C@H]1COC(N)=N1)c1ccccc1` [RO5256390], in data set [1], the suppressing compulsive behavior result is recorded as “effective in suppressing compulsive behavior”. In addition, in data set [2] (10 mg/kg bw intraperitoneal, 20% alcohol, Fig. 3), the “amount of consumed alcohol during 20 hours after injection” value is “statistically significant lower amount of alcohol”. The “amount of consumed alcohol in the 20 hours post injection after a 10 day abstinence period” value in data set [2] (access to alcohol blocked for 10 days, treated as previously (10 mg/kg bw i.p.), Fig. 4) is “statistically significantly lower amount of alcohol”. The “motivation to drink alcohol (number of alcohol drinking attempts)” value in data set [3] is “reduces the motivation to drink alcohol”. In addition, the solubility entry in data set [4] is reported as “well soluble”. The toxicity entry in data set [5] is on record as “non-toxic”.
